From patent publication US20200377485A1, “HYDANTOIN MODULATORS OF KV3 CHANNELS” (AUTIFONY THERAPEUTICS LIMITED, priority 2015, published 2020)

Experiments:
[1] = system: rat model of persistent inflammatory pain; experiment: Persistent inflammatory pain model, intraplantar Freund's Complete Adjuvant, paw withdrawal threshold to mechanical force; format: in vivo
Protocol: (§1) Subjects comprised male, Wistar Hanover rats, 6 animals per group (225±2 g).
(§2) Vehicle (12% Captisol®; 0.5% w/v HPMC and 0.1% w/v Tween-80; 5 ml/kg via the intraperitoneal route) was prepared using autoclaved deionized water not more than one week prior to use.
The control for the neuropathic pain model was lamotrigine, administered at 30 mg/kg via oral delivery. The control for the inflammatory pain model was diclofenac, administered at 30 mg/kg via oral delivery. Statistical analysis was performed using one-way ANOVA, and comparisons were performed with time-matched vehicle group using Tukey's HSD test wherein * p<0.05, ** p<0.01, *** p<0.001.
Mechanical hyperalgesia was examined in a model of persistent inflammatory pain. […]
To assess the effect of the test compound, paw withdrawal thresholds were measured on both the ipsilateral (FCA-injected) and contralateral (non-injected) paws, prior to (naïve) and 24 h following FCA injection (predose), and then at 1, 3, 6 and 24 h after drug or vehicle administration.
Mechanical hyperalgesia was examined in a model of neuropathic pain by measuring paw withdrawal thresholds (PWT) to increasing mechanical force applied to the dorsal surface of the rat paw using an Analgesymeter (Ugo-Basile, Milan) equipped with a wedge-shaped probe (area 1.75 mm^2). […] Both ipsilateral and contralateral paw withdrawal readings were taken. […]

[2] = system: rat model of neuropathic pain; experiment: Neuropathic pain model, partial ligation of the sciatic nerve, paw withdrawal threshold to mechanical force; format: in vivo
Protocol: as §1, §2
The control for the neuropathic pain model was lamotrigine, administered at 30 mg/kg via oral delivery. The control for the inflammatory pain model was diclofenac, administered at 30 mg/kg via oral delivery. Statistical analysis was performed using one-way ANOVA, and comparisons were performed with time-matched vehicle group using Tukey's HSD test wherein * p<0.05, ** p<0.01, *** p<0.001. […]
Withdrawal thresholds were measured on both the ipsilateral (ligated) and contralateral (non-ligated) paws, prior to (predose) and then up to 24 h following drug or vehicle administration.
Pre-dose behavioural measurements were obtained by measuring paw withdrawals 14 days following nerve ligation; before the initiation of drug treatment. Following treatment, further readings were taken at 1, 3, 6 and 24 hour after administration. […]
Data were expressed as withdrawal threshold (g) and percentage reversals calculated according to the following formula: […]
Statistical analysis was carried out on withdrawal threshold readings using ANOVA with repeated measures followed by Tukey's HSD test. […]

[3] = molecular target: T1, human Kv3.2 channels (hKv3.2) (Homo sapiens, UniProt Q96PR1); experiment: IonWorks Quattro electrophysiology, hKv3.2 stable CHO-K1 cell line (potentiation; secondary analysis of activation time Tauact); format: cell-based; settings: -15 mV depolarising step; concentration chosen to give ~0.3 nA at end of pulse: RE1 6.25, RE3 0.2, RE9 0.2, Example 1 0.8 μM; vehicle 7.1 ms
T1 construct: expressed in transfected cells
T1 sequence (Q96PR1 1-638): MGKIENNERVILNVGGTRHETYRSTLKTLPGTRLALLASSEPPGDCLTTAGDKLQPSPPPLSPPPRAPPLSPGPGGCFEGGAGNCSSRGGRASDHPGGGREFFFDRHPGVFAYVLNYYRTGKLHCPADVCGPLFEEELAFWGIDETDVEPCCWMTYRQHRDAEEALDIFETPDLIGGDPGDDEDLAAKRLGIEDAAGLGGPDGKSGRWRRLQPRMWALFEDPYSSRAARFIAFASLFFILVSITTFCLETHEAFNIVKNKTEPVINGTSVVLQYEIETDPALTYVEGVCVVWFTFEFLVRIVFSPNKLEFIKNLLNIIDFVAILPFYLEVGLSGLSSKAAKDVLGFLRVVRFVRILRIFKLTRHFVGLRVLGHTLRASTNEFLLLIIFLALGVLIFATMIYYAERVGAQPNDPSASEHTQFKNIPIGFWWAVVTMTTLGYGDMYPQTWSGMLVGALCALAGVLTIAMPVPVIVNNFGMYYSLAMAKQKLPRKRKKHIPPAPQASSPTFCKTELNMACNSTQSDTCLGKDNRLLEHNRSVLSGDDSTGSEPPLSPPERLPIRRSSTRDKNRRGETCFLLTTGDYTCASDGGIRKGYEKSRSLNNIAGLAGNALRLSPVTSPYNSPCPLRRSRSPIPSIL
Protocol: The ability of the compounds of the invention to modulate the voltage-gated potassium channel subtypes Kv3.2 or Kv3.1 may be determined using the following assay.
To assess compound effects on human Kv3.2 channels (hKv3.2), a stable cell line expressing hKv3.2 was created by transfecting Chinese Hamster Ovary (CHO)-K1 cells with a pClH5-hKv3.2 vector. Cells were cultured in DMEM/F12 medium supplemented by 10% Foetal Bovine Serum, lx non-essential amino acids (Invitrogen) and 500 ug/ml of Hygromycin-B (Invitrogen). Cells were grown and maintained at 37° C. in a humidified environment containing 5% CO2 in air.
The day of the experiment, cells were removed from the incubator and the culture medium removed. Cells were washed with 5 ml of Dulbecco's PBS (DPBS) calcium and magnesium free and detached by the addition of 3 ml Versene (Invitrogen, Italy) followed by a brief incubation at 37° C. for 5 minutes. The flask was tapped to dislodge cells and 10 ml of DPBS containing calcium and magnesium was added to prepare a cell suspension. The cell suspension was then placed into a 15 ml centrifuge tube and centrifuged for 2 min at 1200 rpm. […]
Experiments were conducted at room temperature using IonWorks Quattro™ planar array electrophysiology technology (Molecular Devices Corp.) with PatchPlate™ PPC. […] Planar electrode hole resistances (Rp) were determined by applying a 10 mV voltage step across each well. […] Test pulses protocol may be performed in the absence (pre-read) and presence (post-read) of the test compound. Pre- and post-reads may be separated by the compound addition followed by a 3 minute incubation. […]
The recordings were analysed and filtered using both seal resistance (>20 MΩ) and peak current amplitude (>500 pA at the voltage step of 40 mV) in the absence of compound to eliminate unsuitable cells from further analysis. Paired comparisons between pre- and post-drug additions measured for the −15 mV voltage step were used to determine the positive modulation effect of each compound. […]

[4] = General observations of behaviour during the pain studies; format: in vivo, rat; settings: acute administration, 10-60 mg/kg i.p., neuropathic and inflammatory pain models
Description: In addition to behavioural pain readings, each rat was observed throughout the study for changes in general behaviour.

## O=C(O)Cc1ccccc1Nc1c(Cl)cccc1Cl [diclofenac]
[1]; 30 mg/kg oral, 1 h post-dose
  peak reversal of mechanical sensitivity (positive control): 64%

## Nc1nnc(-c2cccc(Cl)c2Cl)c(N)n1 [lamotrigine]
[2]; 30 mg/kg oral, 3 h post-dose
  peak reversal of mechanical sensitivity (positive control): 67%

## CC[C@H]1NC(=O)N(c2ccc(Oc3ccc(C)c(OC)c3)nc2)C1=O [RE1, (5R)-5-ethyl-3-(6-{[4-methyl-3-(methyloxy)phenyl]oxy}-3-pyridinyl)-2,4-imidazolidinedione]
[3]
  Tauact mean (activation time constant of hKv3.2 current): 9.9 ms

## CC[C@@]1(C)NC(=O)N(c2ccc(Oc3ccc(C)c4c3C3(CC3)CO4)cn2)C1=O [Example 1, (5R)-5-ethyl-5-methyl-3-[5-(7-methylspiro[2H-benzofuran-3,1′-cyclopropane]-4-yl)oxy-2-pyridyl]imidazolidine-2,4-dione]
[3]
  Tauact mean (activation time constant of hKv3.2 current): 18.2 ms

## Cc1ccc(Oc2ncc(N3C(=O)NC(C)(C)C3=O)cn2)c2c1OCC21CC1 [Compound X, 5,5-dimethyl-3-[2-(7-methylspiro[2H-benzofuran-3,1-cyclopropane]-4-yl)oxypyrimidin-5-yl]imidazolidine-2,4-dione]
[2]; 10, 30, 60 mg/kg i.p.
  reversal of mechanical sensitivity, in words: dose-related reversal of mechanical sensitivity with rapid onset and long duration of action
[1]; 10, 30, 60 mg/kg i.p.
  reversal of mechanical sensitivity, in words: dose-related reversal of mechanical sensitivity with rapid onset of action
[4]
  changes in normal (general) behaviour: without causing significant changes in normal behaviour

## CC[C@H]1NC(=O)N(c2ccc(Oc3ccc(C#N)cc3C(C)(C)C)nc2)C1=O [RE3, 3-(1,1-dimethylethyl)-4-({5-[(4R)-4-ethyl-2,5-dioxo-1-imidazolidinyl]-2-pyridinyl}oxy)benzonitrile]
[3]
  Tauact mean (activation time constant of hKv3.2 current): 23.0 ms
